Data as given in patent publication US11542273B2, “Amide compound having bet proteolysis-inducing action and medicinal application thereof” (MITSUBISHI TANABE PHARMA CORPORATION, priority 2018, dated 2023).

Key:
[1] = tested on: human prostate cancer LNCaP cells; test: Cytotoxic action on cancer cells (WST-8, 96 hr); format: cell-based; conditions: Homo sapiens, LNCaP, 96 h, read-out: LNCaP cytotoxic activity: IC50
Protocol: The cytotoxic action of the compound of the present invention against human cancer cells was evaluated in vitro. In this experiment, (+)-JQ1 (Nature volume 468, pages 1067-1073 (23 Dec. 2010)) known to have an inhibitory activity on the binding of BRD4 protein and a ligand therefor was used as a positive control drug. Respective cells were suspended in 10% FBS/RPMI1640, seeded in a 96 well plate and cultured at 5% CO2, 37° C. overnight. A test compound dissolved in DMSO was diluted with 10% FBS/RPMI1640 and added and the cells were further cultured for 96 hr. After culturing, the viable cell number was measured using a cell number measurement WST-8 kit (Kishida Chemical Co., Ltd.). As a control, the measurement was performed under conditions free of the test compound. The cytotoxic activity of the compound of the present invention against human prostate cancer LNCaP cells is shown in IC50 value in Table 1. […] It was calculated from the straight line connecting the cell survival rate at two points enclosing the 50% cell survival rate and the compound concentration. In addition, the cytotoxic activity against respective cancer cells of human acute myeloid leukemia MV-4-11 cell, human chronic myeloid leukemia K562 cell, human multiple myeloma MM.1S cell, human diffuse large B-cell lymphoma SU-DHL-6 cell, human T-cell leukemia Jurkat cells, human Burkitt lymphoma Raji cell, human castration-resistant prostate cancer PC-3 cell, human ovarian cancer A2780 cell, human bladder cancer 5637 cell, human breast cancer ZR-75-1 cell, human triple negative breast cancer MDA-MB-231 cell, human uterine sarcoma MES-SA cell, human gastric cancer SNU-16 cell, human non-small cell lung cancer NCI-H1975 cell, human small cell lung cancer NCI-H82 cell, human large cell lung cancer NCI-H460 cell, human colorectal cancer HCT116 cell, human glioma U-87 MG cell, human pancreatic cancer AsPC-1 cell, and human liver cancer Hep G2 cell is shown in IC50 value in Table 2.

BRD4 protein = BRD4 protein (Homo sapiens (Human), UniProt O60885); test: BRD4 protein degradation inducing action in cancer cells (immunofluorescence, Operetta); format: cell-based; conditions: LNCaP cells, 6 hr treatment, fluorescence intensity
Protocol: The degradation inducing action of the compound of the present invention on BRD4 protein in cancer cells was evaluated in vitro using human prostate cancer LNCaP cells. LNCaP cells were suspended in 10% FBS/RPMI1640, seeded in a 96 well Cell carrier plate (Perkin Elmer) and cultured at 5% CO2, 37° C. overnight. A test compound dissolved in DMSO was diluted with 10% FBS/RPMI1640 and added and the cells were further cultured for 6 hr. After culturing, the cells were immobilized with 4% para-formaldehyde/PBS and further subjected to a permeation treatment with 0.25% Triton X-100/PBS. Thereafter, the cells were blocked with 10% BSA/PBS, a solution containing Anti-Brd4 antibody (Abcam) or Anti-BRD4 (Sigma-Aldrich) as the primary antibody was added and the cells were incubated at 4° C. overnight. Thereafter, as the secondary antibody, a solution containing secondary antibody A shown below was added to Example compounds 1-190, 223 and 224, and a solution containing secondary antibody B shown below was added to Example compounds 191-222, and 0.5 μg/mL Hoechst 33342 (Sigma-Aldrich) and 14 μM Acti-Stain 555 Fluorescent Phalloidin (Cytoskeleton) were further added. After incubation for 1 hr, BRD4 protein amount was measured by Operetta (Perkin Elmer) as fluorescence intensity.
• Anti-Rabbit IgG(H+L), F(ab′)2 Fragment (Alexa Fluor 488 Conjugate) (Cell Signaling Technology), fluorescence intensity was measured at excitation: 495 nm, emission: 519 nm. Secondary Antibody B • Goat anti-Rabbit IgG(H+L) Cross-Adserbed Secondary Antibody (Alexa Fluor 546) (Thermo Fisher Scientific) fluorescence intensity was measured at excitation: 560 nm, emission: 572 nm.
The BRD4 protein degradation inducing activity of the compound of the present invention in LNCaP cells is shown in DC50 value in Table 3. The DC50 value is a concentration of the compound showing 50% fluorescence intensity when the fluorescence intensity thereof under compound untreated condition is 100%. It was calculated from the straight line connecting the fluorescence intensity at two points enclosing the 50% fluorescence intensity and the compound concentration.

| Compound | DC50 (BRD4 protein) [nM] | IC50 [1] [nM] |
| --- | --- | --- |
| COC(=O)C[C@@H]1N=C(c2ccc(-c3ccc(O[C@H]4C[C@@H](C(=O)N[C@H](C(=O)N5C[C@H](O)C[C@H]5C(=O)N[C@@H](C)c5ccc(-c6scnc6C)cc5)C(C)(C)C)C4)nc3)cc2)c2c(sc(C)c2C)-n2c(C)nnc21 [Example 162, methyl {(6S)-4-[4-(6-{[cis-3-({(2S)-1-[(2S,4R)-4-hydroxy-2-({(1S)-1-[4-(4-methyl-1,3-thiazol-5-yl)phenyl]ethyl}carbamoyl)pyrrolidin-1-yl]-3,3-dimethyl-1-oxobutan-2-yl}carbamoyl)cyclobutyl]oxy}pyridin-3-yl)phenyl]-2,3,9-trimethyl-6H-thieno[3,2-f][1,2,4]triazolo[4,3-a] [1,4]diazepin-6-yl}acetate] | 0.3 | 0.37 |
| Cc1ncsc1-c1ccc([C@H](C)NC(=O)[C@@H]2C[C@@H](O)CN2C(=O)[C@@H](NC(=O)c2ccc(-c3ccc(C4=N[C@@H](CC(=O)N(C)C)c5nnc(C)n5-c5sc(C)c(C)c54)cc3)c(F)c2)C(C)(C)C)cc1 [Example 207, (2S,4R)-1-{(2S)-2-[(4′-{(6S)-6-[2-(dimethylamino)-2-oxoethyl]-2,3,9-trimethyl-6H-thieno [3,2-f][1,2,4]triazolo [4,3-a] [1,4]diazepin-4-yl}-2-fluoro [1,1′-biphenyl]-4-carbonyl)amino]-3,3-dimethylbutanoyl}-4-hydroxy-N-{(1S)-1-[4-(4-methyl-1,3-thiazol-5-yl)phenyl]ethyl}pyrrolidine-2-carboxamide] | 0.62 | 0.43 |
| Cc1ncsc1-c1ccc([C@H](C)NC(=O)[C@@H]2C[C@@H](O)CN2C(=O)[C@@H](NC(=O)C2(OCCCc3ccc(C4=N[C@@H](C)c5nnc(C)n5-c5sc(C)c(C)c54)cc3)CC2)C(C)(C)C)cc1 [Example 199, (2S,4R)-1-[(2S)-3,3-dimethyl-2-{[1-(3-{4-[(6S)-2,3,6,9-tetramethyl-6H-thieno[3,2-f][1,2,4]triazolo[4,3-a] [1,4]diazepin-4-yl]phenyl}propoxy)cyclopropane-1-carbonyl]amino}butanoyl]-4-hydroxy-N-{(1S)-1-[4-(4-methyl-1,3-thiazol-5-yl)phenyl]ethyl}pyrrolidine-2-carboxamide] | 0.55 | 0.64 |
| COC(=O)C[C@@H]1N=C(c2ccc(-c3ccc(OCC(=O)N[C@H](C(=O)N4C[C@H](O)C[C@H]4C(=O)N[C@@H](C)c4ccc(-c5scnc5C)cc4)C(C)(C)C)c(CO)c3)cc2)c2c(sc(C)c2C)-n2c(C)nnc21 [Example 154, methyl [(6S)-4-{3′-(hydroxymethyl)-4′-[2-({(2S)-1-[(2S,4R)-4-hydroxy-2-({(1S)-1-[4-(4-methyl-1,3-thiazol-5-yl)phenyl]ethyl}carbamoyl)pyrrolidin-1-yl]-3,3-dimethyl-1-oxobutan-2-yl}amino)-2-oxoethoxy][1,1′-biphenyl]-4-yl}-2,3,9-trimethyl-6H-thieno[3,2-f][1,2,4]triazolo[4,3-a][1,4]diazepin-6-yl]acetate] | 0.42 | 0.45 |
| Cc1ncsc1-c1ccc([C@H](C)NC(=O)[C@@H]2C[C@@H](O)CN2C(=O)[C@@H](NC(=O)CCCCCc2ccc(C3=N[C@@H](C)c4nnc(C)n4-c4sc(C)c(C)c43)cc2)C(C)(C)C)cc1 [Example 193, (2S,4R)-1-{(2S)-3,3-dimethyl-2-[(6-{4-[(6S)-2,3,6,9-tetramethyl-6H-thieno[3,2-f][1,2,4]triazolo[4,3-a] [1,4]diazepin-4-yl]phenyl}hexanoyl)amino]butanoyl}-4-hydroxy-N-{(1S)-1-[4-(4-methyl-1,3-thiazol-5-yl)phenyl]ethyl}pyrrolidine-2-carboxamide] | 0.62 | 0.3 |
| CC(=O)NC1N=C(c2ccc(-c3ccc(OCC(=O)N[C@H](C(=O)N4C[C@H](O)C[C@H]4C(=O)N[C@@H](C)c4ccc(-c5scnc5C)cc4)C(C)(C)C)cc3)cc2)c2c(sc(C)c2C)-n2c(C)nnc21 (stereo partly drawn) [Example 34, (2S,4R)-1-[(2S)-2-(2-{[4′-(6-acetamido-2,3,9-trimethyl-6H-thieno[3,2-f][1,2,4]triazolo[4,3-a][1,4]diazepin-4-yl) [1,1′-biphenyl]-4-yl]oxy}acetamido)-3,3-dimethylbutanoyl]-4-hydroxy-N-{(1S)-1-[4-(4-methyl-1,3-thiazol-5-yl)phenyl]ethyl}pyrrolidine-2-carboxamide] | 0.098 | 0.72 |

More lines, main results first:

| DC50 (BRD4 protein) [nM] | Compound | IC50 [1] [nM] |
| --- | --- | --- |
| 0.92 | COC(=O)C[C@@H]1N=C(c2ccc(-c3ccc(C(=O)N[C@H](C(=O)N4C[C@H](O)C[C@H]4C(=O)NCc4ccc(-c5scnc5CO)cc4)C(C)(C)C)cc3)cc2)c2c(sc(C)c2C)-n2c(C)nnc21 [Example 220, methyl [(6S)-4-(4′-{[(2S)-1-{(2S,4R)-4-hydroxy-2-[({4-[4-(hydroxymethyl)-1,3-thiazol-5-yl]phenyl}methyl)carbamoyl]pyrrolidin-1-yl}-3,3-dimethyl-1-oxobutan-2-yl]carbamoyl}[1,1′-biphenyl]-4-yl)-2,3,9-trimethyl-6H-thieno[3,2-f][1,2,4]triazolo[4,3-a][1,4]diazepin-6-yl]acetate] | 0.92 |
| 0.6 | COC(=O)C[C@@H]1N=C(c2ccc(-c3cc(C(=O)N[C@H](C(=O)N4C[C@H](O)C[C@H]4C(=O)N[C@@H](C)c4ccc(-c5scnc5C)cc4)C(C)(C)C)ccc3F)cc2)c2c(sc(C)c2C)-n2c(C)nnc21 [Example 106, methyl {(6S)-4-[2′-fluoro-5′-({(2S)-1-[(2S,4R)-4-hydroxy-2-({(1S)-1-[4-(4-methyl-1,3-thiazol-5-yl)phenyl]ethyl}carbamoyl)pyrrolidin-1-yl]-3,3-dimethyl-1-oxobutan-2-yl}carbamoyl)[1,1′-biphenyl]-4-yl]-2,3,9-trimethyl-6H-thieno[3,2-f][1,2,4]triazolo[4,3-a][1,4]diazepin-6-yl}acetate] | 0.58 |
| 0.16 | COC(=O)C[C@@H]1N=C(c2ccc(-c3ccc4oc(C(=O)N[C@H](C(=O)N5C[C@H](O)C[C@H]5C(=O)NCc5ccc(-c6scnc6C)cc5)C(C)(C)C)nc4c3)cc2)c2c(sc(C)c2C)-n2c(C)nnc21 [Example 171, methyl [(6S)-4-{4-[2-({(2S)-1-[(2S,4R)-4-hydroxy-2-({[4-(4-methyl-1,3-thiazol-5-yl)phenyl]methyl}carbamoyl)pyrrolidin-1-yl]-3,3-dimethyl-1-oxobutan-2-yl}carbamoyl)-1,3-benzoxazol-5-yl]phenyl}-2,3,9-trimethyl-6H-thieno[3,2-f][1,2,4]triazolo[4,3-a][1,4]diazepin-6-yl]acetate] | 0.08 |
| 0.17 | COC(=O)C[C@@H]1N=C(c2ccc(-c3ccc(C(=O)N[C@H](C(=O)N4C[C@H](O)C[C@H]4C(=O)NCc4ccc(-c5scnc5C)cc4)C(C)(C)C)c(Cl)c3)cc2)c2c(sc(C)c2C)-n2c(C)nnc21 [Example 190, methyl {(6S)-4-[3′-chloro-4′-({(2S)-1-[(2S,4R)-4-hydroxy-2-({[4-(4-methyl-1,3-thiazol-5-yl)phenyl]methyl}carbamoyl)pyrrolidin-1-yl]-3,3-dimethyl-1-oxobutan-2-yl}carbamoyl)[1,1′-biphenyl]-4-yl]-2,3,9-trimethyl-6H-thieno[3,2-f][1,2,4]triazolo[4,3-a][1,4]diazepin-6-yl}acetate] | 0.13 |
